This is an account of results in patent US9624211B2, “Anti-cancer compounds” (Board of Regents, The University of Texas System, priority 2013, dated 2017).

Molecules are shown by their SMILES.

In the first experiment the target is T1, Skp1/Skp2 binding interaction (Homo sapiens, UniProt Q13309).
T1 construct: made in house; host or cells: GST-Skp1: E. coli BL21; Skp2: in vitro translation
T1 sequence (Q13309 whole entry): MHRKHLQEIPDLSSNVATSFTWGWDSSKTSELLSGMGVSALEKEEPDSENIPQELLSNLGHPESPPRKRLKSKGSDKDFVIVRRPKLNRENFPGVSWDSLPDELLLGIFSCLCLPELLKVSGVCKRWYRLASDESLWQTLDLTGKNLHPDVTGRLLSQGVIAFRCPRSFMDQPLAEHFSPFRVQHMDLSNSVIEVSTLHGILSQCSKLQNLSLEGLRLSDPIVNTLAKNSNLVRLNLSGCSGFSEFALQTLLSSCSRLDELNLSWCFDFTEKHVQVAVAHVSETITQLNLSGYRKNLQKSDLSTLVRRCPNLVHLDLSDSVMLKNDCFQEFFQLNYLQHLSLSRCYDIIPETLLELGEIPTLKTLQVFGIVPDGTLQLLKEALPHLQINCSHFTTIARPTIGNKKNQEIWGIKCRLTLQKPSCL
Briefly: In vitro Skp2-Skp1 binding assay (GST pull-down). To be noted: amount of intact Skp1/Skp2 remaining after treatment, quantified on western blot/images. On the procedure:
For in vitro GST-Skp1 and Skp2 interaction, GST-Skp1 proteins purified from the bacterial lysates of BL21 competent cells transformed with pGEX-4X1-Skp1 using the Glutathione-Agarose beads according to the manufacturer's standard procedures. The GST-Skp1 proteins bound to glutathione Sepharose beads (Amersham Biosciences) were then incubated with the in vitro translated [35^S]-Skp2 for 2 hours at 4° C. in the interaction buffer with or without compound #25 (20 mM HEPES, PH 7.9, 150 mM KCl. 5 mM EDTA, 0.5 mM DTT, 0.1% (v/v) Nonidet p-40, 0.1% (w/v) BSA, 1 mM PMSF, and 10% Glycerol), washed by the NETN buffer (20 mM Tris, pH 8.0, 100 mM NaCl, 6 mM MgCl2, 1 mM EDTA, 0.5% Nonidet P-40, 1 mM DTT, 8% glycerol, 1 mM PMSF) 4 times, and subjected to 8% SDS-PAGE, followed by autoradiography.
Below are the original lead compound and 11 similar compounds that were tested for their ability to block the Skp1/Skp2 binding interaction in an in vitro assay. The quantification was made on western blot/images, and the percentages represent the amount of intact Skp1/Skp2 remaining after treatment. In vitro binding assays were performed. For in vitro GST-Skp1 and Skp2 interaction, GST-Skp1 proteins purified from the bacterial lysates of BL21 competent cells transformed with pGEX-4X1-Skp1 using the Glutathione-Agarose beads were performed according to the manufacturer's standard procedures. The GST-Skp1 proteins bound to glutathione Sepharose beads (Amersham Biosciences) were then incubated with the in vitro translated [35^S]-Skp2 for 2 hours at 4° C. in the interaction buffer with or without lead compound and 11 similar compounds (20 mM HEPES, PH 7.9, 150 mM KCl. 5 mM EDTA, 0.5 mM DTT, 0.1% (v/v) Nonidet p-40, 0.1% (w/v) BSA, 1 mM PMSF, and 10% Glycerol), washed by the NETN buffer (20 mM Tris, pH 8.0, 100 mM NaCl, 6 mM MgCl2, 1 mM EDTA, 0.5% Nonidet P-40, 1 mM DTT, 8% glycerol, 1 mM PMSF) 4 times, and subjected to 8% SDS-PAGE, followed by autoradiography. The data presented in Table 1 below was obtained using the Skp1/Skp2 binding affinity assay. The quantification percentage results listed below are based on the western blot results.
(In general: Immunoblotting shows a protein as a band on a membrane.)
Regarding `O=c1c(-c2nc3ccccc3s2)coc2cc(O)ccc12` [compound 684], the “Normalized w/ vehicle treatment” value is given as 75%.

In the case of `COc1ccccc1C(=O)Oc1ccc2c(=O)c(-c3nc4ccccc4s3)coc2c1` [compound 837], the “Normalized w/ vehicle treatment” value was 8%.

In the case of `CCc1cc2c(=O)c(-c3nc4ccccc4s3)coc2c(CN(C)C)c1O` [compound 653], the “Normalized w/ vehicle treatment” value was 8%.

Take `CCc1cc2c(=O)c(-c3nc4ccccc4s3)coc2cc1O` [compound 378]: the “Normalized w/ vehicle treatment” value is 100% (no effect).

`Cn1c(-c2cc3ccc(O)c(CN4CCCCC4)c3oc2=O)nc2ccccc21` [compound 435]: the “Normalized w/ vehicle treatment” value is recorded as 40%.

On to `CCc1cc2c(=O)c(-c3nc4ccccc4s3)coc2c(CN2CCOCC2)c1O` [compound 354], for which the “Normalized w/ vehicle treatment” value stood at 10%.

Turning to `Cn1c(-c2cc3ccc(O)c(CN4CCCCCC4)c3oc2=O)nc2ccccc21` [compound 580], the “Normalized w/ vehicle treatment” value is 8%.

For `CN(C)Cc1c(O)ccc2cc(-c3nc4ccccc4o3)c(=O)oc12` [compound 820], the “Normalized w/ vehicle treatment” value turned out to be 10%.

Regarding `Nc1oc2cc(O)ccc2c(=O)c1-c1nc2ccccc2s1` [compound 649], the “Normalized w/ vehicle treatment” value came to 8%.

On to `O=c1oc2c(CN(CCO)CCO)c(O)ccc2cc1-c1nc2ccccc2s1` [compound 719], for which the “Normalized w/ vehicle treatment” value came to 80%.

For `Cn1c(-c2cc3ccc(O)c(CN4CCCC4)c3oc2=O)nc2ccccc21` [compound 343], the “Normalized w/ vehicle treatment” value is given as 35%.

In another experiment the test system is p27 and p21 protein expression. Briefly: Immunoblotting of SCF substrates in prostate cancer cells. In kind it is cell-based. To be noted: LNCaP prostate cancer cells. The text has this:
Cells were lysed with RIPA buffer in the presence of protease inhibitor cocktail (Roche). The following antibodies were used for immunoblotting analysis: anti-Skp2 (Invitrogen), anti-Xpress (Invitrogen), anti-p27 (BD transduction laboratories), anti-p21 (Santa Cruz), anti-β-actin (Sigma), anti-α-tubulin (Sigma), anti-phospho-Akt (Thr308) (Cell Signaling), anti-phospho-Akt (Ser473) (Cell Signaling), and anti-HA (Convance). For immunohistochemistry, tissues were fixed in 10% formalin and embedded in paraffin in accordance with standard procedures. Sections were stained with anti-Skp2 (Invitrogen), anti-p27 (Epitomics), anti-phosphoAkt (SerS473) (Cell signaling), anti-Glut1 (Abcam), and anti-Ki67 (Abcam). TUNEL staining was performed by using in situ cell death detection kit-POD (Roche).
`NS(=O)(=O)OC[C@@H]1C[C@@H](n2ccc3c(N[C@H]4CCc5ccccc54)ncnc32)C[C@@H]1O` [MLN4924, reference compound]: the “heat shock protein 27 (Hsp27) expression” value is reported as “induced expression”.

The same experiment, now with this note: Skp2, Fbw7 and β-TrCP substrates, FIGS. 3E and 11A.
Take `NS(=O)(=O)OC[C@@H]1C[C@@H](n2ccc3c(N[C@H]4CCc5ccccc54)ncnc32)C[C@@H]1O` [MLN4924, reference compound]: the “stabilization/induction of SCF substrates” value is recorded as “globally induced”.

For a further experiment, the target named is T2, FBW7 (Homo sapiens, UniProt Q969H0).
T2 construct: expressed in transfected cells; host or cells: 293T
T2 sequence (Q969H0 whole entry, species assumed): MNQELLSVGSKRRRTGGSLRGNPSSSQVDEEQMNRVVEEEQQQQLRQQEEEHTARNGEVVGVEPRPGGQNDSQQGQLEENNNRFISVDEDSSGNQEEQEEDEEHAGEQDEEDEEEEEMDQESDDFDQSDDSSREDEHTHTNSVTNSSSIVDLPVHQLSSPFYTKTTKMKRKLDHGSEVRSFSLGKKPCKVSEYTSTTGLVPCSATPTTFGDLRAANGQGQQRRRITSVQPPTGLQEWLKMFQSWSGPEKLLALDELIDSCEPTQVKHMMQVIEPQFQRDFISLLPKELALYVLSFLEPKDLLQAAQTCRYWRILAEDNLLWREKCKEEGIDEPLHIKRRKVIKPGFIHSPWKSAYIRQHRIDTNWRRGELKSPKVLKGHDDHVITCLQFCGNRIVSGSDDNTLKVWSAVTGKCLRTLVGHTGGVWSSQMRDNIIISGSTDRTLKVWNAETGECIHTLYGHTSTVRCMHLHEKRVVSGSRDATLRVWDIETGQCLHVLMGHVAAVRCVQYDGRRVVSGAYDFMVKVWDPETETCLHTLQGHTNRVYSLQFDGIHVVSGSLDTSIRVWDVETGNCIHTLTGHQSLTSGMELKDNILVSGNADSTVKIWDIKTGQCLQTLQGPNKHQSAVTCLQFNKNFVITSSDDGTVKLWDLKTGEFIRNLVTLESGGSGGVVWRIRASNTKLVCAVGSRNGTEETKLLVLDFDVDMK
Briefly: In vivo ubiquitination assay, FBW7 substrates. In kind it is cell-based. The following applies: in the presence of proteasome inhibitor. On the procedure: In vivo and in vitro ubiquitination assays were performed as described with modification (Lin et al., 2009; Yang et al., 2009). For in vitro ubiquitination assay, recombinant GST-Akt proteins were expressed, purified and eluted from the bacterial lysates of BL21 competent cells. Flag-Skp2 SCF complex were expressed in 293T cells, immunoprecipitated by anti-Flag antibody, and eluted from Protein A/G beads using Flag peptides according to manufacturers' standard procedures. Purified GST-Akt and Flag-SCF proteins were incubated for 3 h at 37° C. in the absence and presence of Skp2 inhibitor. After incubation, protein mixtures were diluted in E1A Buffer and the supernatant fluid was precleared with Protein A/G beads for 1 h, and immunoprecipitated overnight with anti-Flag antibody, after which Protein A/G beads were added for an additional 1 h. Beads were washed 4 times with E1A Buffer. Proteins were eluted in SDS-sample buffer and subjected to immunoblotting analysis. For in vivo ubiquitination assay, 293T cells were transfected with the indicated plasmids and cultured in the absence or presence of Skp2 inhibitor for 48 h. 6 h before harvest, cells were cultured in the presence of MG132. After cell harvest, cells were lysed by the denatured buffer (6M guanidine-HCl, 0.1M Na2HPO4/NaH2PO4, 10 mM imidazole). […]
Regarding `NS(=O)(=O)OC[C@@H]1C[C@@H](n2ccc3c(N[C@H]4CCc5ccccc54)ncnc32)C[C@@H]1O` [MLN4924, reference compound], the “FBW7-mediated ubiquitination (c-Jun, MCL-1)” value is reported as “profoundly attenuated”.
